Assay [1] has as its target T1, RARα (Homo sapiens, UniProt P10276).
T1 sequence (P10276 1-462): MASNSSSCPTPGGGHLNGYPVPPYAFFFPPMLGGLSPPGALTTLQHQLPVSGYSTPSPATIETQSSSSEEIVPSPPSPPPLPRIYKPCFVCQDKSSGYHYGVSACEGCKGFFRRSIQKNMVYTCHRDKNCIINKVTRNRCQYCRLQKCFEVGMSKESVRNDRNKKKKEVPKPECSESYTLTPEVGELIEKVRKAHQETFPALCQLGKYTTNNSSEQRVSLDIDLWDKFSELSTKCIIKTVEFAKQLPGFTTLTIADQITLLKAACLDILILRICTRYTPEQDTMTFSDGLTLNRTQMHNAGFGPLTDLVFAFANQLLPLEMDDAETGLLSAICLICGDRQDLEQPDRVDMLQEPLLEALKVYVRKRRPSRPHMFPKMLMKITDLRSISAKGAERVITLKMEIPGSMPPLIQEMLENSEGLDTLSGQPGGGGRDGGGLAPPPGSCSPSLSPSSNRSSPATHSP
In words: RARα activation (transactivation). The following applies: Table 6. It is filed as cell-based. The text has this:
(§1) Methods essentially as described in those publications were used to determine the binding and transactivation properties of retinoids reported in the Examples herein.

The target in assay [2] is T2, RAR β (Homo sapiens, UniProt P10826).
T2 sequence (P10826 1-455): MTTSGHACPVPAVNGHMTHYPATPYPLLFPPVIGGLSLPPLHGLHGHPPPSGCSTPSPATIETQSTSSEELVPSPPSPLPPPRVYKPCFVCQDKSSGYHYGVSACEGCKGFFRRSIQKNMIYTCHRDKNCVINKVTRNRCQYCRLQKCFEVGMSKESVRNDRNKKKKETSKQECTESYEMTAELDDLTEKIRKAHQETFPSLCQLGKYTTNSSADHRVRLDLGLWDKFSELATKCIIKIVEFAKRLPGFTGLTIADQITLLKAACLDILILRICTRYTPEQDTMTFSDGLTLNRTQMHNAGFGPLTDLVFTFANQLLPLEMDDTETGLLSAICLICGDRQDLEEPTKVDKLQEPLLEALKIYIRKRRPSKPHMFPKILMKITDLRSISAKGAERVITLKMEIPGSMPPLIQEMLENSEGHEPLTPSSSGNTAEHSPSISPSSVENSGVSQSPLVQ
Put plainly: RARβ activation (transactivation). It is filed as cell-based. As to conditions: Table 6. The text has this:
(§2) Methods for determining the binding and transactivation properties of retinoids with regard to the RAR receptors and RXR receptors are known in the art, e.g., Levin et al., Nature, 355:359-361 (Jan. 23, 1992); Allenby et al., Proc. Natl. Acad. Sci. USA, 90:30-34 (January, 1993); Allenby et al., J. Biol. Chem., 269:16689-16695 (Jun. 17, 1994). Methods essentially as described in those publications were used to determine the binding and transactivation properties of retinoids reported in the Examples herein.
(§3) Retinoid receptor binding and transactivation assays were performed on Compound B and Example 6 as described above.

Another assay concerns T47-D. In words: T47-D breast carcinoma cell growth inhibition (MTT), combination. In kind it is cell-based, human. The following applies: Compound B plus constant concentration of Example 6; FIG. 7. As to the method: The compound of Example 6 was tested for its ability to inhibit a human breast carcinoma cell line in combination with a retinoid having RARα activity, all-E-3,7-dimethyl-9-[(2-methoxy-4-methyl-6-octyloxy)phenyl]-2,4,6,8-nonatetraenoic acid (Compound B), as shown: [drawing 7]
Breast carcinoma cell line, T47-D, obtained from the ATCC [Accession No. HTB133] was grown in RPMI 1640 media supplemented with 10% FBS, 10 μg/ml insulin and 13 ng/ml gentamicin, and incubated at 37° C., 4.5% CO2 and 95.5% humidified air. The cells were harvested upon reaching 70-80% confluency and pelleted. The cells were resuspended in the media and seeded (150 μl/well) into 96-well plates (Corning) at a density allowing linear growth over a seven day assay period (i.e., T47-D seeded at 4×10^3 cells/well). […]
Liquid was removed by aspiration, 50 μl 95% ethanol was added, and the plates were shaken (Mini-Orbital Shaker, Bellco) for 15 minutes to solubilize the formazan product. The optical density of each well was measured using an automatic plate reader (Microplate EL320 Reader, Bio-Tek Instruments) with a test wavelength of 570 nm and a reference wavelength of 660 nm. The amount of cell growth inhibition caused by various concentrations of Compound B in combination with a constant concentration of the compound of Example 6 was determined in accordance with the following equation: [formula]

Assay [3] deals with T3, RAR γ (Homo sapiens, UniProt P13631).
T3 sequence (P13631 1-454): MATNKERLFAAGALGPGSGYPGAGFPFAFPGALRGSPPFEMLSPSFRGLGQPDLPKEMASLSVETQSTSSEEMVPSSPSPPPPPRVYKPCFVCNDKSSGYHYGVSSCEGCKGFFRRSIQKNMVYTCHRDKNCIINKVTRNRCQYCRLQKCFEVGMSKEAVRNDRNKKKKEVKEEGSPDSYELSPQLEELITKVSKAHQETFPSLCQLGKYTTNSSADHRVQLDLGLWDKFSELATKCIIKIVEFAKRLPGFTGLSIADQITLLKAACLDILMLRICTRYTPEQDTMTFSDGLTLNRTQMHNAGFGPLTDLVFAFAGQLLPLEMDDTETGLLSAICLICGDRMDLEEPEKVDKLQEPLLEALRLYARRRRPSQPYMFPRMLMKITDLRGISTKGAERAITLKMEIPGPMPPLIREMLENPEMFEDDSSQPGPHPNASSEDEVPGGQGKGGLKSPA
In words: RARγ activation (transactivation). In kind it is cell-based. The following applies: Table 6; @ 1000 nM; read-out: RAR Activation % max (γ).
Description: as §2, §3

For assay [4], the target named is T2, RAR β. In words: RARβ binding. The following applies: Table 6.
Description: as §2, §3

The target of another assay is T4, RXRα (Homo sapiens, UniProt P19793).
T4 sequence (P19793 1-462): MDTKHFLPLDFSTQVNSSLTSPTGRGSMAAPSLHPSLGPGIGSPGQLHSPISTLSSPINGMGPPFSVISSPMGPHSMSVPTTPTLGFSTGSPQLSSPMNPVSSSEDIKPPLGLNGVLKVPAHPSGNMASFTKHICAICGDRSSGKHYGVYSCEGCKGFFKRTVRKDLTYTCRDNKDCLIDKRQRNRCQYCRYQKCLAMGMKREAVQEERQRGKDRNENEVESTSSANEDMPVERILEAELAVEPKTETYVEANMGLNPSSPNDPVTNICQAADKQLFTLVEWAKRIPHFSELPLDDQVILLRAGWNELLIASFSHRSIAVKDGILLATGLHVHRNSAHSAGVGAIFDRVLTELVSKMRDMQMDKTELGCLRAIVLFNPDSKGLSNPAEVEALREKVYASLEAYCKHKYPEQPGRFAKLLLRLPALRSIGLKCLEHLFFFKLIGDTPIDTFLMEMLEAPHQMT
Put plainly: RXRα activation (transactivation). In kind it is cell-based. As to conditions: Table 6; @ 1000 nM; read-out: RXR Activation % max (α).
Description: as §1

Assay [5] deals with T3, RAR γ. Put plainly: RARγ binding. The following applies: Table 6.
Description: as §2, §3

Assay [6] addresses T1, RARα. In words: RARα binding. As to conditions: Table 6; read-out: RAR Binding IC50 (α).
Description: as §1

Structures are written as SMILES. Where only a bound is given, the exact number is not on record here.

For the molecule `CC1=C(/C=C/C2=C(/C=C/C(C)=C/C(=O)O)CCCCC2)C(C)(C)CCC1` [Example 6, (2E,4E)-3-Methyl-5-(2-((E)-2(2,6,6-trimethyl-1-cyclohexen-1-yl)ethenyl)-1-cyclohepten-1-yl)-2,4-pentadienoic acid], the Emax at 1 µM is 4% at RARα [1] (@ 1000 nM, read-out: RAR Activation % max (α)); 8% at RAR β [2] (@ 1000 nM, read-out: RAR Activation % max (β)); 9% at RAR γ [3]. Also, in the assay on T47-D, the “antiproliferative activity in breast cancer cell line in combination (potentiation of Compound B)” value was “Enhanced antiproliferative activity”.
On to `CCCCCCCCOc1cc(C)cc(OC)c1/C=C/C(C)=C/C=C/C(C)=C/C(=O)O` [Compound B, all-E-3,7-dimethyl-9-[(2-methoxy-4-methyl-6-octyloxy)phenyl]-2,4,6,8-nonatetraenoic acid], for which the concentration for a half-maximal effect (EC50) (usually the concentration at which the effect is half-maximal) is 11 nM at RARα [1] (read-out: RAR Activation EC50 (α)) and 5.3 nM on RAR β [2]. Moreover, the IC50 (as a rule, the concentration that gives 50% inhibition) at RAR β [4] was 500 nM; on RAR γ [5], over 10000 nM; on RARα [6], 240 nM. For the same molecule, the Emax at 1 µM on RAR γ [3] is 48%; at RXRα it was 0%.

For the origin of these results see patent publication US5986131A, “RXR selective ligands” (Hoffmann-La Roche Inc., priority 1997, dated 1999).
